# Assay results from US8404287B2, “Use of Fructus schisandrae and extracts thereof in preventing and decreasing toxic and side effects of antineoplastic drugs” (priority 2005, dated 2013).
# Like-named read-outs stand apart in the source and are kept apart here.
# Legend:
# [1] = system: ICR mice; settings: antineoplastic agent ip once every two days x7 (Methotrexate 2, Cisplatin 2, 5-fluorouracil 30, Cytoxan 30, Vincristine 0.3 mg/kg), alone or within two hours after lignan 100 mg/kg ig
# From the text: The mice were divided randomly as following, 6 mice per group.
# [2] = system: ICR mice; settings: antineoplastic agent ip once every two days x7 (Methotrexate 2, Cisplatin 2, 5-fluorouracil 30, Cytoxan 30, Vincristine 0.3, Doxorubicin 4 mg/kg), alone or within 2 h after extract 400 mg/kg ig
# From the text: The mice were grouped randomly as below, 6 mice per group.
# [3] = system: mice with myocardial damage induced by Doxorubicin; test: Serum myocardium enzymes (CK, CK-MB, LDH, GOT) after Doxorubicin, Schisandrin B (Example 7)
# Description: CK, CK-MB, LDH and GOT were determined by automatic biochemistry analyzer.
# Control group: 24 mice were dosed intragastrically with normal saline at the 1st-3rd day of the experiment, once a day and each time with 20 ml/kg.
# Group of Schisandrin B (SchB group): 24 mice were dosed intragastrically with SchB at the 1st-3rd day of the experiment, once a day and each time with 100 mg/kg.
# Group of Doxorubicin: 42 mice were dosed intragastrically with normal saline at the 1st-3rd day of the experiment, once a day and each time with 20 ml/kg.
# At the 5th day (48 hours after injection of Doxorubicin into abdominal cavity), blood were taken from 6 mice of each group. The serum was separated by regular separation. CK, CK-MB, LDH and GOT were determined by automatic biochemistry analyzer.
# [4] = system: ICR mice; test: Apparent condition of mice, ethanol extract and Doxorubicin (Example 2); format: in vivo, mouse; settings: Doxorubicin alone or with extract ig 3 times
# [5] = system: mice with acute toxicity induced by Doxorubicin; test: Survival rate of mice with acute toxicity induced by Doxorubicin, Schisandrin B (Example 7); format: in vivo, mouse
# Description: Group of Doxorubicin: 42 mice were dosed intragastrically with normal saline at the 1st-3rd day of the experiment, once a day and each time with 20 ml/kg. At the 3rd day, the mice were injected into their abdominal cavities with Doxorubicin of 25 mg/kg.
# At the 3rd day, the mice were injected into their abdominal cavities with 25 mg/kg of Doxorubicin 0.5 hours after drench.
# [6] = system: ICR mice; settings: Doxorubicin alone or in combination with dibenzocyclooctadiene lignans
# Description: Doxorubicin Hydrochloride Injection was obtained from Italy pharmacia Co. Six Dibenzocyclooctadiene lignans were obtained from National Institute for the Verification of Pharmaceutical and Biological Products (Product No.: 110765-200407), which were dissolved in 0.5% Poloxamer. Female ICR mice with a body weight of 25-30 g were obtained from Shanghai Experimental Animal Center, which were grouped randomly into 4 groups, 10 mice per group.
# Group of Doxorubicin (Dox group): 10 mice were injected into their abdominal cavities with 2 mg/kg of Doxorubicin once every two days, consecutively for 7 times.
# [7] = system: mice with acute toxicity induced by Doxorubicin; test: Survival rate of mice with acute toxicity induced by Doxorubicin, ethanol extract (Example 2); format: in vivo, mouse
# Description: Group of Doxorubicin (the Dox group): 42 mice were dosed intragastrically with normal saline in an amount of 20 ml/kg each time at the 1st-3rd day of the experiment, once a day. At the 3rd day, the mice were injected with Doxorubicin of 25 mg/kg into their abdominal cavities.
# Group 1 of Doxorubicin plus the extract of Fructus schisandrae (group 1 of Dox +X): 24 mice were dosed intragastrically with the extract of Fructus schisandrae in an amount of 400 mg/kg each time at the 1st-3rd day of the experiment, once a day. At the 3rd day, the mice were injected with 25 mg/kg of Doxorubicin into their abdominal cavities 0.5 hours after drench.
# Group 2 of Doxorubicin plus the extract of Fructus schisandrae (group 2 of Dox +X): 24 mice were dosed intragastrically with the extract of Fructus schisandrae in an amount of 200 mg/kg each time at the 1st-3rd day of the experiment, once a day. At the 3rd day, the mice were injected with 25 mg/kg of Doxorubicin into their abdominal cavities 0.5 hours after drench.
# [8] = system: mice with myocardial damage induced by Doxorubicin; test: Serum myocardium enzymes (CK, CK-MB, LDH, GOT) after Doxorubicin, ethanol extract (Example 2); format: in vivo, mouse; settings: Dox group: Doxorubicin 25 mg/kg ip at 3rd day; vs control group and X group (P<0.05); 48 h after injection
# Description: Ethanol extract of Fructus schisandrae prepared from Example 1 was dissolved in 0.5% Poloxamer. CK (creatine kinase), CK-MB (creatine kinase isozyme), LDH (lactic dehydrogenase) and GOT (glutamic-oxalocetic transaminase) were detected by automatic biochemistry analyzer.
# The serum was separated by regular separation and frozen at −80° C.
# [9] = system: left ventricular myocardium matrix metalloproteinase (MMP-2); test: Left ventricular myocardium MMP-2 activity, Schisandrin B (Example 7); format: in vivo, mouse
# Description: The experimental method was carried out as those described in Example 2 (1.4).
smiles,measurement,setting,value
O=P1(N(CCCl)CCCl)NCCCO1 (stereo not shown) [Cytoxan],Heart weight,[1],162.6 ± 31.4 mg
same,Kidney weight,[1],396.3 ± 54.7 mg
same,Liver weight,[1],1.88 ± 0.36 g
same,Spleen weight,[1],113.5 ± 24.7 mg
same,Thymus weight,[1],49.8 ± 12.4 mg
same,Heart weight,[2],162.6 ± 31.4 mg
same,Kidney weight,[2],396.3 ± 54.7 mg
same,Liver weight,[2],1.88 ± 0.36 g
same,Spleen weight,[2],113.5 ± 24.7 mg
same,Thymus weight,[2],49.8 ± 12.4 mg
COc1cccc2c1C(=O)c1c(O)c3c(c(O)c1C2=O)C[C@@](O)(C(=O)CO)C[C@@H]3O[C@H]1C[C@H](N)[C@H](O)[C@H](C)O1 [Doxorubicin],"4 serum enzyme indexes (CK, CK-MB, LDH, GOT)","[3]; Doxorubicin 25 mg/kg ip alone, vs control group and Sch B group (P<0.05), 48 h after injection",significantly higher
same,apparent condition of mice,[4],"in bad conditions, manifested as asthenia, listlessness, hypotrichosis"
same,survival rate on the 7th day,[5]; Doxorubicin 25 mg/kg ip alone,0
same,day on which death of mice occurred,"[5]; Doxorubicin 25 mg/kg ip, alone or with Sch B 100, 50 or 25 mg/kg ig days 1-3",4 days
same,apparent conditions of mice,[6],"in bad conditions after 7-8 days, manifested as asthenia, listlessness and hypotrichosis"
same,survival rate on the 7th day,[7]; Dox group: Doxorubicin 25 mg/kg ip alone,3.7%
same,day on which death of mice occurred,"[7]; Doxorubicin 25 mg/kg ip, alone or with extract 400 or 200 mg/kg ig days 1-3",5 days
same,"serum myocardium enzyme spectrum indexes (CK, CK-MB, LDH, GOT)",[8],significantly higher
COc1cc2c(c(OC)c1OC)-c1c(cc3c(c1OC)OCO3)CC(C)C(C)C2 (stereo not shown) [Schisandrin B],increase of mouse serum creatine kinase (CK) induced by Doxorubicin,[3]; FIG. 10,inhibit the increase
same,increase of mouse serum creatine kinase isozyme (CK-MB) induced by Doxorubicin,[3]; FIG. 11,inhibit the increase
same,increase of mouse serum glutamic-oxalocetic transaminase (GOT) induced by Doxorubicin,[3]; FIG. 12,inhibit the increase
same,increase of mouse serum lactic dehydrogenase (LDH) induced by Doxorubicin,[3]; FIG. 13,inhibit the increase
same,death of mouse induced by Doxorubicin,[5]; FIG. 15,inhibit the death
same,increase of mouse left ventricular myocardium MMP-2 activity induced by Doxorubicin,[9]; FIG. 14,inhibit the increase
same,left ventricular myocardium MMP-2 activity,"[9]; Sch B group: 100 mg/kg ig days 1-3, no Doxorubicin",No left ventricular myocardium matrix metalloproteinase (MMP-2) activity
